From ChEMBL document CHEMBL1136644, “Alkylation of manganese(II) tetraphenylporphyrin by antimalarial fluorinated artemisinin derivatives” (Bioorg Med Chem Lett, 2003)

How the values were obtained:
[1] = Half-life in plasma; assay type: ADME, cell-free
[2] = system: Plasmodium falciparum; test: In vitro inhibitory activity against the chloroquine-resistant Plasmodium falciparum W2 Indochina; assay type: functional, organism-based
[3] = Partition coefficient (logP); assay type: physicochemical; details: octanol/water

SMILES | half-life [1] [h] | IC50 [2] [nM] | logP [3]
C[C@H]1[C@@H](C(=O)OCCC(=O)[O-])O[C@@H]2O[C@]3(C)CC[C@H]4[C@H](C)CC[C@@H]1C24OO3.[Na+] | < 2 | – | –
C[C@@H]1CC[C@H]2[C@@H](C)[C@](O[Si](C)(C)C)(C(F)(F)F)O[C@@H]3O[C@]4(C)CC[C@@H]1C32OO4 | – | 72 | –
CO[C@H]1O[C@@H]2OC3(C)CC[C@H]4[C@H](C)CC[C@@H]([C@H]1C)[C@@]24OO3 (single isomer, unassigned) [ARTEMETHER] | < 2 | – | 3.36
C[C@@H]1CC[C@H]2[C@@H](C)C(=O)O[C@@H]3OC4(C)CC[C@@H]1[C@]32OO4 (single isomer, unassigned) [ARTEMISININ] | < 2 | – | –
